Measured values published in patent US12116356B2, “N-heterocyclic five-membered ring-containing capsid protein assembly inhibitor, pharmaceutical composition thereof, and use thereof” (CHIA TAI TIANQING PHARMACEUTICAL GROUP CO., LTD., priority 2018, dated 2024).
In brackets after ≈: the same amount, converted by molar mass.

Experiments:
[1] = Plasma protein binding assay (equilibrium dialysis), mouse plasma; assay type: in vitro ADME
Procedure: Formulation of plasma sample: 495 μL of blank plasmas of the corresponding species (mouse, rat, dog, monkey, and human) were drawn respectively, and thereto was added 5 μL of the corresponding test compound solution or positive control to give plasma sample solutions having a plasma drug concentration of the compound of 1 μM, and 10 μM, respectively (formulated with acetonitrile).
The pre-treated dialysis membrane was placed in a high-throughput equilibrium dialysis device, and 100 μL of the plasma sample solution and PBS buffer solution were drawn and added respectively to both sides of the dialysis membrane (sample side and buffer side) (n=3). After the equilibration device was sealed with a film, it was incubated at 37° C. overnight (100 rpm). After dialysis equilibrium was reached, 50 μL samples were drawn from the sample side and the buffer side, respectively, and the reaction was terminated by adding ice acetonitrile containing an internal standard.
Sample pre-treatment: To 50 μL of the plasma-side sample was added 450 μL of ice acetonitrile containing an internal standard, and then precipitated. After vortexing for 5 minutes, the sample was centrifugated (12000 rpm, 4° C.) for 10 minutes. 75 μL of the supernatant was pipetted, and 75 μL of ultrapure water was added thereto for dilution and mixed uniformly. 1 μL of the resulting solution was injected for analysis. To 50 μL of the PBS-side sample was added 250 μL of ice acetonitrile with an internal standard, and precipitated. After vortexing for 5 min, the sample was centrifugated (12000 rpm, 4° C.) for 10 min. 75 μL of the supernatant was pipetted, and 75 μL of ultrapure water was added thereto for dilution and mixed uniformly. 2 μL of the resulting solution was injected for analysis.

[2] = Stability of rat liver microsomes in vitro; assay type: in vitro ADME
Procedure: (§1) 300 μL of a final incubation system contains 30 μL of liver microsomes (protein concentration: 0.15 mg/mL), 30 μL NADPH+MgCl2, 3 μL substrate (formulated with acetonitrile), and 237 μL PBS buffer. Duplicate incubation systems of 0.3 mL each were formulated for each species. A total volume of 270 μL of a uniformly mixed solution of the substrate and the enzyme was formulated in each tube, the solution and NADPH were pre-incubated at 37° C. for 5 minutes, respectively. Then 30 μL of the mixed solution of NADPH+MgCl2 was added for reaction. 50 μL of the reaction solution was taken out at 0, 10, 30, and 60 mins, and the reaction was terminated with 300 μL of ice acetonitrile containing an internal standard.
(§2) Sample pre-treatment: To 50 μL of the incubated sample was added 300 μL of ice acetonitrile containing diazepam as an internal standard and then precipitated. After vortexing for 5 minutes, the sample was centrifugated (12000 rpm, 4° C.) for 10 minutes. 75 μL of the supernatant was pipetted into a 96-well plate, and then diluted with 75 μL ultrapure water and mixed uniformly. 0.5 μL of the resulting solution was injected and analyzed by LC-MS/MS.

[3] = Stability of human liver microsomes in vitro; assay type: in vitro ADME
Procedure: as §1, §2

[4] = In vitro cytotoxicity (CCK-8) in HepAD38 cells; assay type: cell-based; conditions: human
Procedure: A bottle of HepG2.2.15 or HepAD38 cells in good exponential growth state was taken, washed once by adding 5 mL PBS, and then thereto was added 3 mL trypsin. The sample was digested in a cell culture incubator, and taken out from time to time and observed under a microscope. When the cells just fell off, 1 mL trypsin was discarded. The residual liquid was placed in a cell culture incubator at 37° C. and digested for 8-15 min. The cells were taken out and observed under a microscope (whether the cells were individually round and there was no adhesion between the cells). 5 mL MEM medium was added for cell resuspension. The cells were then subjected to cell counting with a cell counter, diluted with a complete medium, and adjusted to a cell density of 2*10^5 cells/mL. Then the cells were seeded at 100 μL/well in a 96-well plate with a multi-channel pipette (the 96-well plate was coated with 50 μg/mL Collagen I solution in advance), and cultured in a constant temperature CO2 incubator for 24 h. The cells were treated by drug administration, and fresh medium containing the compound was used to replace the spent medium every 3 days. To control wells was added a drug-free medium containing 0.5% DMSO, and a control well containing a common medium was set up. 6 days after the administration, CCK-8 was added at 10 μL/well. After 1 to 2 hours, the absorbance was detected with microplate reader at 450 nm, and the inhibition rate and the CC50 were calculated.

[5] = tested on: HBV (recombinant plasmid pHBV 1.3); experiment: Antiviral effect evaluation in HDI mouse model; assay type: in vivo, C57BL/6 mice; conditions: 30 mg/kg intragastric once daily for 6 days
Procedure: 6-8 week old male C57BL/6 mice was used, and each mouse was injected with purified recombinant plasmid pHBV 1.3 (10 μg) dissolved in PBS equivalent to a volume of about 10% of its body weight through the tail vein within 3-8 s. Blood was collected from the orbits of the mice at 24 hours after the plasmid injection to detect serum HBV DNA. The model mice having uniform serum DNA were selected and divided into: a blank control group, a vehicle control group, and a test substance group. Mice in each group were continuously administered intragastrically once daily for 6 days at a dose of 30 mg/kg. The mouse serum was taken on day 1, 3, 5, and 7 after the injection, and the mice were sacrificed on day 7 to take liver tissue samples. The HBV DNA copy numbers in serum and liver of the mice were detected by fluorescent quantitative PCR method.

[6] = tested on: rAAV8-1.3HBV virus (adr subtype); experiment: Antiviral effect evaluation in AAV mouse model; assay type: in vivo, C57BL/6 mice; conditions: 30 mpk intragastric once daily, administration for 24 days
Procedure: 6-8 week old male C57BL/6 mice were injected with rAAV8-1.3HBV virus (adr subtype) at tail vein at a dose of 1×10^11 vg. Blood was collected from the orbits of the mice on week 2 and 4 after the virus injection. The serum was separated, and the expression levels of HBeAg and HBsAg in the serum and the HBV DNA copy number were detected to evaluate whether the model was successfully established. According to the results of quantitative detection of serological HBeAg, HBsAg and HBV DNA, the mice having HBV DNA expression level greater than 1×10^4 IU/mL, HBeAg expression level greater than 1×10^3 NCU/mL and HBsAg expression level greater than 1×10^3 ng/mL were selected. The mice were grouped into a blank control group, a vehicle control group, and a test substance group. […] During the experiment, blood was collected from the orbits every other week, serum was separated, and the DNA content was detected by fluorescent quantitative PCR method.

[7] = Solubility in PBS buffer at pH 7.4; assay type: physicochemical; conditions: aqueous buffer, PBS buffer pH 7.4, 25° C.
Procedure: […] After standing at 25° C. for 16 hours, the system was centrifugated (12000 rpm, room temperature) for 10 min. 20 μL of the supernatant was taken out, and the reaction was terminated with 400 μL of acetonitrile containing an internal standard (diazepam 20 ng/mL). 30 μL of the supernatant was pipetted, and 150 μL of 50% acetonitrile aqueous solution was added thereto for dilution and mixed uniformly. 0.5 μL of the resulting solution was injected for analysis.

Structure (SMILES)	Binding rate ([1]; 1 μM) [%]	Binding rate ([1]; 10 μM) [%]	Remaining (%) at 60 min [2] [%]	Remaining (%) at 60 min [3] [%]	CC50 at 6 days [4] [µM]	Reduction levels (log10) of HBV DNA in semm on day 5 [5] [log10]	Reduction levels (log10) of HBV DNA in serum, Day 7 [6] [log10]	Reduction levels (log10) of HBV DNA in serum, Day 14 [6] [log10]	Reduction levels (log10) of HBV DNA in serum, Day 21 [6] [log10]	Reduction levels (log10) of HBV DNA in serum, Day 28 [6] [log10]	solubility at 16 h [7] [µM]
Cc1c(C(=O)Nc2ccc(F)c(C#N)c2)c(C)n(C)c1C(=O)C(=O)N[C@@H](C)C(F)(F)F [Example 12]	75.3	74.5	65.0	78.8	> 100	2.17	2.42	3.46	5.08	2.48	8.1 (≈ 3.55 µg/mL)
Cc1c(C(=O)Nc2ccc(F)c(C#N)c2)c(C)n(C)c1C(=O)C(=O)NC1(C(F)(F)F)COC1 [Example 25, N-(3-cyano-4-fluorophenyl)-1,2,4-trimethyl-5-(2-oxo-2-((3-(trifluoromethyl)oxetan-3-yl)amino)acetyl)-1H-pyrrole-3-carboxamide]	76.5	74.7	52.0	–	> 100	1.73	1.16	1.76	2.89	1.28	–
